Experimental data published in patent US20080299602A1, “Methods of Employing Vascular Leakage to Diagnose a Capillary Leak Disorder” (priority 2007, published 2008).

System: omental vessels of the rat
Experiment: Vascular leakage after intravenous bolus of marinobufagenin (FIG. 1), fluorescein-tagged albumin videomicroscopy
Assay type: in vivo
Conditions: bolus of 200 nM marinobufagenin injected intravenously, time increments vs control (Con)
Protocol: FIG. 1 illustrates increasing vascular leakage at time increments from 5 seconds to 50 seconds with Con being the control group.
A bolus of 200 nM marinobufagenin was injected intravenously.
In the experimental procedure, single venules were visualized by way of a videomicroscopic technique, which permits viewing blood flow directly. The rats were injected with albumin that had been tagged with fluorescein dye. The distribution of the albumin in the omental vessels of the rat was then observed with a computer being employed to repeatedly measure the dye in the blood vessel and in the interstitium next to the blood vessel, as well as a remote site, which would serve as the control.

C[C@]12CC[C@H](O)C[C@@]1(O)CC[C@@H]1[C@@H]2CC[C@]2(C)[C@@H](c3ccc(=O)oc3)C[C@H]3O[C@]132 [marinobufagenin]
vascular leakage (dye monitored within the extravascular space): progressive, large leakage
